Experiments:
[1] = tested on: bladder specimen of high-week-old male rats; test: Test Example 3: isometric contraction test of bladder specimen from high-week-old male rats after oral dosing; type: in vivo; settings: 22-week-old male rats, oral once a day 2 weeks, 10 mg/kg, compared with Group C (dutasteride 0.3 mg/kg)
Source text: High-week-old male rats (22-week-old; Charles River Laboratories Japan, Inc.) were examined and evaluated for the relationship between the test substances and the bladder and urethra contraction reaction. Since the rats are high-week-old, the rats are a model in which the prostate is predicted to be enlarged.
A test substance was orally administered to the high-week-old male rats repeatedly at a frequency of once a day over two (2) weeks, and then, from each rat, a bladder specimen was extracted. The bladder specimen was suspended at a resting tension of about 9.8 mN in a constant-temperature Magnus tube (37° C.) filled with a physiological salt solution aerated with 95% 02-5% CO2 gas and was subjected to an isometric contraction test by applying a square-wave electrical field stimulation (EFS, Amplitude; 0.3 ms, Frequency; 1, 2, 5, 10, 20 Hz, Duration; 5 s); or Carbachol (CCH, 100 nmol/L to 100 μmol/L) and KCl (40, 80 mmol/L).
Solvent group (control group): 0.5 v/v % Polysorbate 80 solution, 10 mL/kg (n=6) • Group A: Compound A, 10 mg/kg (n=6) • Group C: Compound C (dutasteride), 0.3 mg/kg (n=6)

[2] = tested on: lower urinary tract obstruction model of rats (male); test: Test Example 2: urination function in lower urinary tract obstruction model of male rats; type: in vivo; settings: oral once a day 14 days, 10 mg/kg, in comparison with Group C (dutasteride 0.5 mg/kg)
Source text: A lower urinary tract obstruction model of rats was used as a test system. A test substance was orally administered to the lower urinary tract obstruction model repeatedly over 14 days to examine the action on the urination function in the lower urinary tract obstruction model. The lower urinary tract obstruction model is not a benign prostatic hyperplasia model with enlarged prostate.
More specifically, the rats (male, Crl:CD(SD), 8-week-old; Charles River Laboratories Japan, Inc.) were operated to form lower urinary tract obstruction and repeatedly received oral administration of the test substance at a frequency of once a day over 14 days. After the completion of the administration, each rat was subjected to bladder catheterization under anesthesia and cystometry under no anesthesia and was evaluated for the residual urine volume and the urination efficiency.
The test substances and the dosage in the test system (male rats with lower urinary tract obstruction) are as follows. • Solvent group (control group): 0.5 v/v % Polysorbate 80 solution, 10 mL/kg (n=8) • Group A: Compound A, 10 mg/kg (n=12) • Group C: Compound C (dutasteride), 0.5 mg/kg (n=11)

CC(=O)O[C@]1(C(C)=O)C[C@@H](O)[C@H]2[C@@H]3C=C(Cl)C4=CC(=O)OC[C@]4(C)[C@H]3CC[C@@]21C [Compound A, 17α-acetoxy-6-chloro-15β-hydroxy-2-oxa-4,6-pregnadiene-3,20-dione]
bladder contraction tension caused by square-wave electrical field stimulation or Carbachol and KCl [1]: significantly strong or has a strong directionality
urination function (the residual urine volume, the urination efficiency) [2]: strong improvement action
